Where “and” joins values, the source holds several entries; their conditions need not be identical. Identical values can stand only once.
Key:
GST tagged PIP4KtypeIIA = biological target: T1, GST tagged PIP4KtypeIIA (Homo sapiens, UniProt P48426); assay: ADP-glo kinase assay PIP4K 2A (PIP4KtypeIIA inhibition assay); assay type: biochemical; settings: Table 3; compounds listed under IC50 range headings; 10 uM ATP, 0.5 nM PIP4KIIA
T1 construct: made in house; host or cells: E. coli
T1 sequence (P48426 1-406): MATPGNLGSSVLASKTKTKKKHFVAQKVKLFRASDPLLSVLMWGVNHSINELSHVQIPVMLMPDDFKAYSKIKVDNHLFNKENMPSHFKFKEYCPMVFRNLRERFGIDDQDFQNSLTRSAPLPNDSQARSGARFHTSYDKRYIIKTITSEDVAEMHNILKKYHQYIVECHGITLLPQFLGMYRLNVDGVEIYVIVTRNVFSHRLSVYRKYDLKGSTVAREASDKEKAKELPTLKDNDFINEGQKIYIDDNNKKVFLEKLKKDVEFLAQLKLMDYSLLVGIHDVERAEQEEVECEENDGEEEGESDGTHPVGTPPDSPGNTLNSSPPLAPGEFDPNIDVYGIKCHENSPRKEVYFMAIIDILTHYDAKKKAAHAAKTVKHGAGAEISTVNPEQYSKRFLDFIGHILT
Text: GST tagged PIP4KtypeIIA and B enzymes were overexpressed in E. Coli and purified to >80% homogeneity. Phosphatidyl inositol-5-phosphate (PI5P, Cat. #850152, Avanti Polar Lipids Inc.) was used as the lipid substrate and phosphatidyl ethanolamine (DOPE 18:1, Cat. #850725, Avanti Polar Lipids Inc.) was used as the carrier lipid for assays. Ultrapure ATP and GTP was purchased from Bellbrooke Labs. ADP Glo reagents were obtained from Promega. Transcreener FI reagent was obtained from Bellbrooke labs.
1. HEPES buffer mix: 200 mM HEPES pH 7.4, 50 mM MgCl2, 0.05% v/v triton×100
2. HNE buffer: 20 mM HEPES, pH 7.4, 100 mM NaCl, 0.5 mM EGTA
3. H:E buffer: 30 mM HEPES, pH 7.4, 1 mM EGTA
Enzyme preparation: GST-tagged PIP4KtypeIIA (5 uL, 1.43 mg/mL) was diluted (1:10) to 50 uL using HNE buffer. From the 1:10 diluted stock, a 6.4 uL aliquot was diluted further to 5 mL using HNE buffer to yield 5× enzyme stock (2.5 nM).
Lipid Preparation: In a 10 mL pyrex glass vial, lug of PI5P and lug of DOPE were suspended in 2.5 mL of HEPES buffer mix and 2.5 mL of H:E buffer. The contents were mixed and sonicated for 3 min to yield a translucent lipid stock.
Compound Preparation: Compounds were stored as 5 mM stocks in neat DMSO as room temperature in glass vials. 5 mM stocks were diluted to 2 mM and then serially diluted (3×) in neat DMSO in 96 well polypropylene plates. From the serially diluted stocks, 3 uL was delivered into 250 uL of 25% DMSO (in water) to generate 5× compound stocks. Typically, the highest compound conc. was 24 uM.
The assay volume was kept at 25 uL. To each well of the reaction plate, 10 uL of lipid stock (1:1 ratio PI5P:DOPE) was delivered. This was followed by the addition of 5 uL of compound in 25% DMSO. Then, to each well, 5 uL of 2.5 nM (5×) typeIIA enzyme was delivered. The contents were mixed well and incubated for 1 h at 27 C. After 1 h, reaction was initiated by adding 5 uL of 50 uM ATP and the contents were mixed well with a multi-channel pipetteman. The final concentration of the reagents are as follows: 50 mM HEPES, pH 7.3, 10 mM MgCl2, 20 mM NaCl, 0.01% v/v triton-X100, 5% DMSO, 10 uM ATP, 80 uM (2 ug) PI5P, 2 ug DOPE, and 0.5 nM PIP4KIIA. Typically, the highest conc. of compounds was 4.8 uM and the lowest conc. was 0.
After 1 hr, the reaction was quenched by adding 25 uL of ADP Glo reagent. The contents were incubated for 1 hr. Afterwards, 50 uL of kinase detection reagent was delivered. The contents were incubated for another hour. The luminescence was read using Molecular Devices Paradigm plate reader. […] The blanks were averaged and subtracted from all other wells. Using a calibration curve, RLU was converted to uM ADP (product). IC50 was calculated by plotting the residual activity (expressed as % No inhibitor control) vs. log [Inh. conc.]

GST tagged PIP4KtypeIIB = biological target: T2, GST tagged PIP4KtypeIIB (Homo sapiens, UniProt P78356); assay: Trans-FI P kinase assay PIP4K2B (PIP4KtypeIIB inhibition assay); assay type: biochemical; settings: Table 4; compounds listed under IC50 range headings; 100 uM GTP, 5 nM PIP4KIIB; read-out: Trans-FI P kinase assays: PIP4K2B IC50
T2 construct: made in house; host or cells: E. coli
T2 sequence (P78356 1-416): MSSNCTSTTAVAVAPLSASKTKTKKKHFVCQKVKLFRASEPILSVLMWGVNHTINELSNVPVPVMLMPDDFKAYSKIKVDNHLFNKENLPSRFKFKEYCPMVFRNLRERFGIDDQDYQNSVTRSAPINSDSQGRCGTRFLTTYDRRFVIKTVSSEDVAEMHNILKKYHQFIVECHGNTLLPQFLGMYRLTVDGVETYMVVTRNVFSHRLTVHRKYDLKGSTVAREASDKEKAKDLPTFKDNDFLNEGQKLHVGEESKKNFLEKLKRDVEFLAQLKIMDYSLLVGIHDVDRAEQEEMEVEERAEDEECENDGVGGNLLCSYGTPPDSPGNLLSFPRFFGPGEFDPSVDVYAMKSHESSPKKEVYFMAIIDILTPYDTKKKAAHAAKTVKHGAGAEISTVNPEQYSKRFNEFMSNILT
Outline: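 Transcreener FI fluorescence, converted to GDP by calibration, tracked product from 5 nM E. coli-expressed GST-PIP4KIIB acting on 80 uM PI5P (DOPE carrier) with 100 uM GTP. Compound (top 4.8 uM final, 5% DMSO) was preincubated 1 h at 27 C before the 2 h reaction; IC50 fitted from residual activity.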

Compound | IC50 (GST tagged PIP4KtypeIIA) | IC50 (GST tagged PIP4KtypeIIB)
Cc1cc(N2CCCC2=O)ccc1-c1cncc(-c2cn(C)c3ncc(C(C)O)cc23)c1 (centres unmarked) [Example 197, 1-(4-(5-(5-(1-hydroxyethyl)-1-methyl-1H-pyrrolo[2,3-b]pyridin-3-yl)pyridin-3-yl)-3-methylphenyl)pyrrolidin-2-one] | 100 to 1000 nM | 100 to 1000 nM
O=C(NCCc1nn[nH]n1)c1cc2c(-c3cncc(-c4ccc(N5CCCC5=O)cc4)c3)ccnc2[nH]1 [Example 251, N-(2-(2H-tetrazol-5-yl)ethyl)-4-(5-(4-(2-oxopyrrolidin-1-yl)phenyl)pyridin-3-yl)-1H-pyrrolo[2,3-b]pyridine-2-carboxamide] | 100 to 1000 nM | 10 to 100 nM
O=C(Nc1ccc(-c2cncc(-c3ccnc4[nH]ncc34)c2)cc1)C(=O)N1C2CCC1CC2 [Example 204, N-(4-(5-(1H-pyrazolo[3,4-b]pyridin-4-yl)pyridin-3-yl)phenyl)-2-(7-azabicyclo[2.2.1]heptan-7-yl)-2-oxoacetamide] | 100 to 1000 nM | > 5000 nM
O=C(NCCc1ccncc1)c1cc2c(-c3cncc(-c4ccc(N5CCCC5=O)cc4)c3)ccnc2[nH]1 [Example 247, 4-(5-(4-(2-oxopyrrolidin-1-yl)phenyl)pyridin-3-yl)-N-(2-(pyridin-4-yl)ethyl)-1H-pyrrolo[2,3-b]pyridine-2-carboxamide] | 100 to 1000 nM | 10 to 100 nM
Cc1c(-c2ccc(N3CCCC3=O)cc2)cncc1-c1cn(C)c2ncc([C@@H](C)O)cc12 (single isomer, unassigned) [196(R)] | 100 to 1000 nM | 100 to 1000 nM
CC(O)c1cnc2[nH]c(C3CC3)c(-c3cncc(-c4ccc(N5CCCC5=O)cc4)c3)c2c1 (centres unmarked) [Example 291, 1-(4-(5-(2-cyclopropyl-5-(1-hydroxyethyl)-1H-pyrrolo[2,3-b]pyridin-3-yl)pyridin-3-yl)phenyl)pyrrolidin-2-one] | 10 to 100 nM | 10 to 100 nM
O=C(NCCc1cccnc1)c1cc2c(-c3cncc(-c4ccc(N5CCCC5=O)cc4)c3)ccnc2[nH]1 [Example 237, 4-(5-(4-(2-oxopyrrolidin-1-yl)phenyl)pyridin-3-yl)-N-(2-(pyridin-3-yl)ethyl)-1H-pyrrolo[2,3-b]pyridine-2-carboxamide] | 100 to 1000 nM | 10 to 100 nM
CN(C)C(=O)c1cc2c(-c3cncc(-c4ccc(N5CCCC5=O)cc4)c3)cn(C)c2c(=O)n1C [Example 260, N,N,1,6-tetramethyl-7-oxo-3-(5-(4-(2-oxopyrrolidin-1-yl)phenyl)pyridin-3-yl)-6,7-dihydro-1H-pyrrolo[2,3-c]pyridine-5-carboxamide] | 100 to 1000 nM | 100 to 1000 nM
O=C(NC1CC1)c1cc2c(-c3cncc(-c4ccc(N5CCCC5=O)cc4)c3)ccnc2[nH]1 [Example 242, N-cyclopropyl-4-(5-(4-(2-oxopyrrolidin-1-yl)phenyl)pyridin-3-yl)-1H-pyrrolo[2,3-b]pyridine-2-carboxamide] | 100 to 1000 nM | 10 to 100 nM
O=C(NCCc1nccs1)c1cc2c(-c3cncc(-c4ccc(N5CCCC5=O)cc4)c3)ccnc2[nH]1 [Example 256, 4-(5-(4-(2-oxopyrrolidin-1-yl)phenyl)pyridin-3-yl)-N-(2-(thiazol-2-yl)ethyl)-1H-pyrrolo[2,3-b]pyridine-2-carboxamide] | 100 to 1000 nM | 10 to 100 nM
CN1CCn2c(cc3c(-c4cncc(-c5ccc(N6C(=O)Cc7ccccc76)cc5)c4)ccnc32)C1=O [Example 202, 7-methyl-4-(5-(4-(2-oxoindolin-1-yl)phenyl)pyridin-3-yl)-8,9-dihydropyrido[3′,2′:4,5]pyrrolo[1,2-a]pyrazin-6(7H)-one] | > 5000 nM | > 5000 nM
CN(C)C(=O)c1ccc(-c2cc(-c3ccnc4[nH]c(C(=O)NC5CCNC5=O)cc34)cnc2N)nc1 (centres unmarked) [Example 149, 4-(2′-amino-5-(dimethylcarbamoyl)-[2,3′-bipyridin]-5′-yl)-N-(2-oxopyrrolidin-3-yl)-1H-pyrrolo[2,3-b]pyridine-2-carboxamide] | 1000 to 2500 nM | 10 to 100 nM
O=C(Nc1ccc(-c2cncc(-c3ccnc4[nH]ncc34)c2)cc1)c1cc(C2CCC2)on1 [Example 205, N-(4-(5-(1H-pyrazolo[3,4-b]pyridin-4-yl)pyridin-3-yl)phenyl)-5-cyclobutylisoxazole-3-carboxamide] | > 5000 nM | 100 to 1000 nM and > 5000 nM
CN(C)C(=O)c1ccc(-c2cc(-c3ccnc4[nH]c(C(=O)NCC(N)=O)cc34)cnc2N)nc1 [Example 144, N-(2-amino-2-oxoethyl)-4-(2′-amino-5-(dimethylcarbamoyl)-[2,3′-bipyridin]-5′-yl)-1H-pyrrolo[2,3-b]pyridine-2-carboxamide] | 100 to 1000 nM | 10 to 100 nM
CN(C)C(=O)c1ccc(-c2cc(-c3ccnc4[nH]c(C(=O)NCCN)cc34)cnc2N)nc1 [Example 133, 4-(2′-amino-5-(dimethylcarbamoyl)-[2,3′-bipyridin]-5′-yl)-N-(2-aminoethyl)-1H-pyrrolo[2,3-b]pyridine-2-carboxamide] | 1000 to 2500 nM | 100 to 1000 nM
CN(C)C(=O)c1cnc2c(c1)c(-c1cncc(-c3ccc(N4CCCC4=O)cc3)c1)c(C1CC1)n2C [Example 262, 2-cyclopropyl-N,N,1-trimethyl-3-(5-(4-(2-oxopyrrolidin-1-yl)phenyl)pyridin-3-yl)-1H-pyrrolo[2,3-b]pyridine-5-carboxamide] | 2500 to 5000 nM | 100 to 1000 nM
Cc1cc(N2CCCC2=O)ccc1-c1cncc(-c2cn(C)c3ncc([C@H](C)O)cc23)c1 (single isomer, unassigned) [197(S)] | 100 to 1000 nM | 1000 to 2500 nM
O=C(NCc1ccccn1)c1cc2c(-c3cncc(-c4ccc(N5CCCC5=O)cc4)c3)ccnc2[nH]1 [Example 239, 4-(5-(4-(2-oxopyrrolidin-1-yl)phenyl)pyridin-3-yl)-N-(pyridin-2-ylmethyl)-1H-pyrrolo[2,3-b]pyridine-2-carboxamide] | 100 to 1000 nM | 10 to 100 nM
CN(C)C(=O)c1ccc(-c2cc(-c3ccnc4[nH]c(C(=O)N[C@H]5COC[C@H]5N)cc34)cnc2N)nc1 [Example 226, 4-(2′-amino-5-(dimethylcarbamoyl)-[2,3′-bipyridin]-5′-yl)-N-((3R,4S)-4-aminotetrahydrofuran-3-yl)-1H-pyrrolo[2,3-b]pyridine-2-carboxamide] | 1000 to 2500 nM | 10 to 100 nM

From patent US11919902B2, “Aryl-bipyridine amine derivatives as phosphatidylinositol phosphate kinase inhibitors” (HiberCell, Inc., priority 2017, dated 2024)
